Reference: patent US20110034420A1, “NOVEL CRYSTALLINE FORM B OF (2R)-(3-AMINO-2-FLUOROPROPYL)PHOSPHINIC ACID” (priority 2008, published 2011)

Assay: isoelectric point of the zwitterion
Assay type: physicochemical
Details: pH at which it may be crystallised
From the text: (2R)-(3-amino-2-fluoropropyl)phosphinic acid is a zwitterion, that may be crystallised at the isoelectric point, in this case approximately at a pH of 5.3.

Q: With NC[C@@H](F)C[PH](=O)O [(2R)-(3-amino-2-fluoropropyl)phosphinic acid] as the compound, how does the “isoelectric point (pH)” value read?
A: ~5.3 pH
